This note sets out measurements from patent US6872805B2 (Bristol-Myers Squibb Company, priority 2000, dated 2005).

The target of the assay is T1, NS3/4A H77C strain (Hepatitis C virus genotype 1a, UniProt P27958, C1454S).
T1 construct: DNA encoding the recombinant HCV NS3/4A protease complex (amino acid 1027 to 1711) for these strains; inferred from pET21b vector and Ni-NTA purification; made in house; host or cells: E. coli BL21 (DE3)
Briefly: Recombinant HCV NS3/4A protease complex FRET peptide assay, H77C strain. The assay is classed as biochemical, HCV genotype 1a. From the text: The purpose of this in vitro assay was to measure the inhibition of HCV NS3 protease complexes, derived from the BMS, H77C or J416S strains, as described below, by compounds of the present invention. This assay provides an indication of how effective compounds of the present invention would be in inhibiting HCV […] proteolytic activity.
Serum from an HCV-infected patient was obtained from Dr. T. Wright, San Francisco Hospital. An engineered full-length cDNA template of the HCV genome (BMS strain) was constructed from DNA fragments obtained by reverse transcription-PCR (RT-PCR) of serum RNA and using primers selected on the basis of homology between other genotype 1a strains. From the determination of the entire genome sequence, a genotype 1a was assigned to the HCV isolate according to the classification of Simmonds et al. (See P Simmonds, K A Rose, S Graham, S W Chan, F McOmish, B C Dow, E A Follett, P L Yap and H Marsden, J. Clin. Microbiol., 31(6), 1493-1503 (1993)). […] The infectious clones, H77C (1a genotype) and J4L6S (1b genotype) were obtained from R. Purcell (NIH) and the sequences are published in genebank (AAB67036, see Yanagi, M., Purcell, R. H., Emerson, S. U. and Bukh, J. Proc. Natl. Acad. Sci. U.S.A. 94(16),8738-8743 (1997); AF054247, see Yanagi, M., St Claire, M., Shapiro, M., Emerson, S. U., Purcell, R. H. and Bukh, J, Virology 244 (1), 161-172. (1998)). […]

Molecules are shown by their SMILES.

T1 sequence (P27958 1027-1657 C1454S): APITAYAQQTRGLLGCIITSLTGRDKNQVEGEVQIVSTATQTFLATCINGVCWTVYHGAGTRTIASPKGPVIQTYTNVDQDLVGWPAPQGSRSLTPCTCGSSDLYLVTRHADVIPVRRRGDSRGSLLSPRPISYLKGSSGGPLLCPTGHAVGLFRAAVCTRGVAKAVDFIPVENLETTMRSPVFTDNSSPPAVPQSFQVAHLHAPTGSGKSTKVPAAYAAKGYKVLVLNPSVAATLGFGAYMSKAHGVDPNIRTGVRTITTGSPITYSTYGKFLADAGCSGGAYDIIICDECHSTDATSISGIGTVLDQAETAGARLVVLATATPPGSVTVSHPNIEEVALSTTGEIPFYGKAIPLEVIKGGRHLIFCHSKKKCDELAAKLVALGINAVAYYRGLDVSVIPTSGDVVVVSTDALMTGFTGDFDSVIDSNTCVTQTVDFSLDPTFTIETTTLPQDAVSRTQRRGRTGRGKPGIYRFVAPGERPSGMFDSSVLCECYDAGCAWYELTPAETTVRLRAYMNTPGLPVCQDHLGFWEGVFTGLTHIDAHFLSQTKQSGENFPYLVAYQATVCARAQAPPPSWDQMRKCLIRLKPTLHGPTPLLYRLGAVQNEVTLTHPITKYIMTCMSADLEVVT
T1 sequence (P27958 1658-1711 partner, looked up, stated change not applied): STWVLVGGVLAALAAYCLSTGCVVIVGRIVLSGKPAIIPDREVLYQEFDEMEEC

What is called IC50 is the concentration at which inhibition is half-maximal. Regarding `C=CC1C[C@]1(NC(=O)[C@@H]1C[C@@H](Oc2cc(-c3ccccc3)nc3cc(OC)ccc23)CN1C(=O)C(NC(=O)OC(C)(C)C)C(C)(C)C)C(=O)NS(=O)(=O)c1ccc(NC(C)=O)cc1` (stereo partly shown) [Compound 58], the IC50 is 10 nM.
